We go through 20 compounds from patent US8623877B2, “Substituted N-heteroaryl tetrahydro-isoquinoline derivatives, preparation and therapeutic use thereof” (Sanofi, priority 2010, dated 2014).

The target in one test is Rat H3 (Rattus norvegicus, UniProt Q9QYN8). Put plainly: Rat H3 radioligand binding assay (similar procedure). As to the method:
(§1) Rhesus H3 radioligand binding assay was performed using rhesus H3 receptor membranes (prepared as described above), [3H]-Methylhistamine (Perkin Elmer) and WGA SPA beads (wheat germ agglutinin scintillation proximity assay) beads (Amersham). The assay was performed in 96-well Opti-Plates (Packard). Each reaction contained 50 μl rhesus H3 membranes (20-30 μg total protein), 50 μl WGA SPA beads (0.1 μg) and 50 μl of 83 Ci/mmol [^3H]-Methylhistamine (final concentration 2 nM) and 50 μl of tested compound. The compounds of this invention and/or vehicle were diluted with binding buffer from 10 mM DMSO stocks. Assay plates were sealed with TopSeal (Perkin Elmer) and mixed on shaker (25° C., 1 hour). Assay plates were read on TopCount scintillation counter (Packard). Results were analyzed by Hill transformation and Ki values were determined by Cheng-Prusoff equation. Similar procedure was employed to determine the binding data for rat.

In test [1] the target is T1, rhesus H3 (Macaca mulatta, UniProt Q865E1).
T1 construct: 445 amino acid H3 receptor; expressed in transfected cells; host or cells: Flp-In T-REx 293 Cell Line (Invitrogen), pcDNA5/FRT/TO, induced with tetracycline
Put plainly: Rhesus H3 [3H]-Methylhistamine radioligand binding assay (SPA, cell membranes). Details: species or system rhesus monkey (Macacca Mulatta). The conditions noted are these: [3H]-Methylhistamine 2 nM, Cheng-Prusoff. The procedure:
(§2) Rhesus H3 membranes were prepared from the Flp-In T-REx 293 Cell Line (Invitrogen) stably transfected with pcDNA5/FRT/TO (Invitrogen) containing the rhesus monkey (Macacca Mulatta) 445 amino acid H3 receptor. (Genbank #AY231164). Stably transfected cultures were amplified in tissue culture flasks by standard tissue culture methods and induced to express rhesus H3 by exposure to 500 ng/ml tetracycline (Cellgro) for 24 hours. After induction, cells were dissociated from flasks utilizing Cell Stripper (Cellgro). Cells were centrifuged (1 K×g, 5 min) and pellet frozen in an ethanol-dry ice bath to disrupt cell membranes. Frozen cell pellet was re-suspended in 5 mM HEPES (pH 7.4, Invitrogen) at 10 ml/1000 cm2 of harvested cells. The cell suspension was drawn through an 18 gauge needle (2-3×) followed by a 23 gauge needle (2-3×) to further disrupt cell membranes. The cell suspension was centrifuged (40K×g, 30 min). Cell membrane pellet was re-suspended in 5 mM HEPES (pH 7.4, Invitrogen) at a final protein concentration of 10 mg/ml. Rhesus H3 membranes were stored under liquid nitrogen prior to use in [3H]-Methylhistamine and GTPγS radioligand binding assays.
as §1

In test [2] the target is T1, rhesus H3. Kind of test: GTPγS radioligand binding assay, inhibition of rhesus H3 constitutive functional activity in cell membranes. Type of test: biochemical, rhesus monkey (Macacca Mulatta). The conditions noted are these: basal rhesus H3-mediated GTPγS binding. The procedure: as §2
Setting [3] is: rat H3, similar procedure to the rhesus binding assay, read-out: Rat H3 Binding ki.

SMILES strings stand for the structures. Read-outs that look alike come from different tables or passages of the source.

Sequence of Rat H3 (Q9QYN8 whole entry): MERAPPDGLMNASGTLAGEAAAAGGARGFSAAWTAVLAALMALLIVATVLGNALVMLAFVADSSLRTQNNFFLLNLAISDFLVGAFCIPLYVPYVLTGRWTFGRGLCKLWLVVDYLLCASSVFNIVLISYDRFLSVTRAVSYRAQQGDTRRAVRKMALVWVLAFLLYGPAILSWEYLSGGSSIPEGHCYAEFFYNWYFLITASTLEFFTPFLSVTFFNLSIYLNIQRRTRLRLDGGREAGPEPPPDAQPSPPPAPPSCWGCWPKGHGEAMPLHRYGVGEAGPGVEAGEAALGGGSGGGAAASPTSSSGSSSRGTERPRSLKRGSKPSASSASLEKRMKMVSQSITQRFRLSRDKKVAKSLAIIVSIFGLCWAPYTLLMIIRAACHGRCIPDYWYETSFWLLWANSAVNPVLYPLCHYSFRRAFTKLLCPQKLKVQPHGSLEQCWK
T1 sequence (Q865E1 1-445): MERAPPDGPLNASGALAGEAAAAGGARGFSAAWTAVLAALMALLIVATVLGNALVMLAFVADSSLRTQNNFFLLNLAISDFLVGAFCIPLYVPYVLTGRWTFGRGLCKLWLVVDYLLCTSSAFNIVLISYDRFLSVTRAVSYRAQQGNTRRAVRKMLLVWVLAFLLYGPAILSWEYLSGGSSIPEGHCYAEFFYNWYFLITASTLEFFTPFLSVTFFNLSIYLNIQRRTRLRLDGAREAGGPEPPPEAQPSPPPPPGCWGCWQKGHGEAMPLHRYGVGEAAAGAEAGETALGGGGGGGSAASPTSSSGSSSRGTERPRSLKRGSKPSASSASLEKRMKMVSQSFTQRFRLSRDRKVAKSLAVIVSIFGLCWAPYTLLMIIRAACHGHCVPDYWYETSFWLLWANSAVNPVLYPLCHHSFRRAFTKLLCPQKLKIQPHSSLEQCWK

By Ki is commonly meant the dissociation constant of the complex between target and ligand, obtained from inhibition or displacement. In the case of `CNC(=O)c1ccc(N2CCc3cc(N4CC[C@H](N5CCC[C@@H]5C)C4)ccc3C2)nc1` [Example 1, N-Methyl-6-[6-((2S,3′S)-2-methyl-[1,3′]bipyrrolidinyl-1′-yl)-3,4-dihydro-1H-isoquinolin-2-yl]-nicotinamide], the inhibition constant (Ki) at Rat H3 (setting [3]) came out at 0.95 nM; on rhesus H3 [1], 0.39 nM.

With `C[C@H]1CCCN1[C@H]1CCN(c2ccc3c(c2)CCN(c2ccc(C(F)(F)F)cn2)C3)C1` [Example 2, 6-((2S,3′S)-2-Methyl-[1,3′]bipyrrolidinyl-1′-yl)-2-(5-trifluoromethyl-pyridin-2-yl)-1,2,3,4-tetrahydro-isoquinoline], the Ki on Rat H3 (setting [3]) worked out at 56 nM; at rhesus H3 [1] it was 29 nM. In addition, the “GTPγS-35 ASSAY % Inverse Agonism” value on rhesus H3 [2] was −37.4%.

As to `C[C@H]1CCCN1[C@H]1CCN(c2ccc3c(c2)CCN(c2cccnc2Cl)C3)C1` [Example 3, 2-(2-Chloro-pyridin-3-yl)-6-((2S,3′S)-2-methyl-[1,3′]bipyrrolidinyl-1′-yl)-1,2,3,4-tetrahydro-isoquinoline], the values for the Ki at Rat H3 (setting [3]) and on rhesus H3 [1] were 6.1 nM and 2.2 nM, respectively. Moreover, the “GTPγS-35 ASSAY % Inverse Agonism” value at rhesus H3 [2] is on record as −14.7%.

With `Cc1cccc(N2CCc3cc(N4CC[C@H](N5CCC[C@@H]5C)C4)ccc3C2)n1` [Example 4, 6-((2S,3′S)-2-Methyl-[1,3′]bipyrrolidinyl-1′-yl)-2-(6-methyl-pyridin-2-yl)-1,2,3,4-tetrahydro-isoquinoline], the Ki at Rat H3 (setting [3]) worked out at 0.4 nM; at rhesus H3 [1], 0.48 nM. For the same compound, the “GTPγS-35 ASSAY % Inverse Agonism” value at rhesus H3 [2] is given as −46.7%.

As for `C[C@H]1CCCN1[C@H]1CCN(c2ccc3c(c2)CCN(c2cnc(Br)nc2)C3)C1` [Example 5, 2-(2-Bromo-pyrimidin-5-yl)-6-((2S,3′S)-2-methyl-[1,3′]bipyrrolidinyl-1′-yl)-1,2,3,4-tetrahydro-isoquinoline], the Ki amounted to 92 nM at Rat H3 (setting [3]) and 24 nM at rhesus H3 [1]. For the same compound, the “GTPγS-35 ASSAY % Inverse Agonism” value at rhesus H3 [2] was −36.4%.

Turning to `C[C@H]1CCCN1[C@H]1CCN(c2ccc3c(c2)CCN(c2cncnc2)C3)C1` [Example 6, 6-((2S,3′S)-2-Methyl-[1,3′]bipyrrolidinyl-1′-yl)-2-pyrimidin-5-yl-1,2,3,4-tetrahydro-isoquinoline], the Ki on Rat H3 (setting [3]) was 1.5 nM; on rhesus H3 [1] it was 0.98 nM. For the same compound, at rhesus H3 [2], the “GTPγS-35 ASSAY % Inverse Agonism” value was −48.7%.

As to `C[C@H]1CCCN1[C@H]1CCN(c2ccc3c(c2)CCN(c2cnc4ccccc4c2)C3)C1` [Example 7, 3-[6-((2S,3′S)-2-Methyl-[1,3′]bipyrrolidinyl-1′-yl)-3,4-dihydro-1H-isoquinolin-2-yl]-quinoline], the Ki came to 26 nM at Rat H3 (setting [3]) and 0.28 nM at rhesus H3 [1]. Besides, on rhesus H3 [2], the “GTPγS-35 ASSAY % Inverse Agonism” value is −32.5%.

Take `C[C@H]1CCCN1[C@H]1CCN(c2ccc3c(c2)CCN(c2nc4ccccc4o2)C3)C1` [Example 8, 2-Benzooxazol-2-yl-6-((2S,3′S)-2-methyl-[1,3′]bipyrrolidinyl-1′-yl)-1,2,3,4-tetrahydro-isoquinoline]: the Ki is 1200 nM at Rat H3 (setting [3]) and 680 nM at rhesus H3 [1]. In addition, at rhesus H3 [2], the “GTPγS-35 ASSAY % Inverse Agonism” value is −29.4%.

`Cc1ccc(S(=O)(=O)N2CCc3cc(N4CCc5cc(N6CC[C@H](N7CCC[C@@H]7C)C6)ccc5C4)ccc3C2)cc1` [Example 9, 6-((2S,3′S)-2-Methyl-[1,3′]bipyrrolidinyl-1′-yl)-2′-(toluene-4-sulfonyl)-3,4,1′,2′,3′,4′-hexahydro-1H-[2,6′]biisoquinolinyl]: the Ki at Rat H3 (setting [3]) worked out at 380 nM; at rhesus H3 [1], 180 nM. The “GTPγS-35 ASSAY % Inverse Agonism” value on rhesus H3 [2] is −13.0%.

As to `COc1cncc(N2CCc3cc(N4CC[C@H](N5CCC[C@@H]5C)C4)ccc3C2)c1` [Example 10, 2-(5-Methoxy-pyridin-3-yl)-6-((2S,3′S)-2-methyl-[1,3′]bipyrrolidinyl-1′-yl)-1,2,3,4-tetrahydro-isoquinoline], the inhibition constant (Ki) at Rat H3 (setting [3]) came out at 0.5 nM; on rhesus H3 [1] it was 0.24 nM. Further, on rhesus H3 [2], the “GTPγS-35 ASSAY % Inverse Agonism” value is −16.7%.

As for `Cc1cc(C(F)(F)F)cc(N2CCc3cc(N4CC[C@H](N5CCC[C@@H]5C)C4)ccc3C2)n1` [Example 11, 6-((2S,3′S)-2-Methyl-[1,3′]bipyrrolidinyl-1′-yl)-2-(6-methyl-4-trifluoromethyl-pyridin-2-yl)-1,2,3,4-tetrahydro-isoquinoline], the results for the Ki on Rat H3 (setting [3]) and on rhesus H3 [1] were 50 nM and 15 nM, respectively. Moreover, on rhesus H3 [2], the “GTPγS-35 ASSAY % Inverse Agonism” value is recorded as −20.9%.

With `C[C@H]1CCCN1[C@H]1CCN(c2ccc3c(c2)CCN(c2ccc(F)cn2)C3)C1` [Example 12, 2-(5-Fluoro-pyridin-2-yl)-6-((2S,3′S)-2-methyl-[1,3′]bipyrrolidinyl-1′-yl)-1,2,3,4-tetrahydro-isoquinoline], the results for the Ki at Rat H3 (setting [3]) and on rhesus H3 [1] were 6.1 nM and 1.3 nM, respectively. The “GTPγS-35 ASSAY % Inverse Agonism” value at rhesus H3 [2] was −23.3%.

`Cc1ccnc(N2CCc3cc(N4CC[C@H](N5CCC[C@@H]5C)C4)ccc3C2)c1` [Example 13, 6-((2S,3′S)-2-Methyl-[1,3′]bipyrrolidinyl-1′-yl)-2-(4-methyl-pyridin-2-yl)-1,2,3,4-tetrahydro-isoquinoline]: the Ki is 1.7 nM on Rat H3 (setting [3]) and 0.58 nM on rhesus H3 [1]. On rhesus H3 [2], the “GTPγS-35 ASSAY % Inverse Agonism” value is on record as −27.3%.

Take `C[C@H]1CCCN1[C@H]1CCN(c2ccc3c(c2)CCN(c2ncc(C(F)(F)F)cc2Cl)C3)C1` [Example 14, 2-(3-Chloro-5-trifluoromethyl-pyridin-2-yl)-6-((2S,3′S)-2-methyl-[1,3′]bipyrrolidinyl-1′-yl)-1,2,3,4-tetrahydro-isoquinoline]: the Ki on Rat H3 (setting [3]) was 310 nM; on rhesus H3 [1], 35 nM. At rhesus H3 [2], the “GTPγS-35 ASSAY % Inverse Agonism” value is −18.3%.

Turning to `C[C@H]1CCCN1[C@H]1CCN(c2ccc3c(c2)CCN(c2cccc(N4CCCC4)n2)C3)C1` [Example 15, 6-((2S,3′S)-2-Methyl-[1,3′]bipyrrolidinyl-1′-yl)-2-(6-pyrrolidin-1-yl-pyridin-2-yl)-1,2,3,4-tetrahydro-isoquinoline], the inhibition constant (Ki) at Rat H3 (setting [3]) was 22 nM; at rhesus H3 [1] it was 4.8 nM. Also, the “GTPγS-35 ASSAY % Inverse Agonism” value at rhesus H3 [2] is reported as −13.8%.

Regarding `C[C@H]1CCCN1[C@H]1CCN(c2ccc3c(c2)CCN(c2ccc(Cl)cn2)C3)C1` [Example 16, 2-(5-Chloro-pyridin-2-yl)-6-((2S,3′S)-2-methyl-[1,3′]bipyrrolidinyl-1′-yl)-1,2,3,4-tetrahydro-isoquinoline], the inhibitory constant (Ki) on Rat H3 (setting [3]) was 27 nM; at rhesus H3 [1], 4.6 nM. Moreover, the “GTPγS-35 ASSAY % Inverse Agonism” value on rhesus H3 [2] is listed as −21.9%.

Regarding `C[C@H]1CCCN1[C@H]1CCN(c2ccc3c(c2)CCNCC3)C1` [Example 17, 7-((2S,3′S)-2-Methyl-1,3′-bipyrrolidinyl-1′-yl)-2,3,4,5-tetrahydro-1H-3-benzazepine], the Ki was 5.9 nM on Rat H3 and 1.2 nM on rhesus H3 [1]. Moreover, at rhesus H3 [2], the “GTPγS-35 ASSAY % Inverse Agonism” value is recorded as −14.7%.

On to `C[C@H]1CCCN1[C@H]1CCN(c2ccc3c(c2)CCN(c2cnc4ccccc4c2)CC3)C1` [Example 18, 7-((2S,3′S)-2-Methyl-[1,3′]bipyrrolidinyl-1′-yl)-3-quinolin-3-yl-2,3,4,5-tetrahydro-1H-benzo[d]azepine], for which the Ki at Rat H3 (setting [3]) was 1.2 nM; on rhesus H3 [1], 26 nM. In addition, the “GTPγS-35 ASSAY % Inverse Agonism” value on rhesus H3 [2] is −8.2%.

On to `C[C@H]1CCCN1[C@H]1CCN(c2ccc3c(c2)CCN(c2ccc(C(F)(F)F)cn2)CC3)C1` [Example 19, 7-((2S,3′S)-2-Methyl-[1,3′]bipyrrolidinyl-1′-yl)-3-(5-trifluoromethyl-pyridin-2-yl)-2,3,4,5-tetrahydro-1H-benzo[d]azepine], for which the Ki came out at 0.93 nM at Rat H3 (setting [3]) and 25 nM on rhesus H3 [1]. Further, the “GTPγS-35 ASSAY % Inverse Agonism” value at rhesus H3 [2] is reported as −8.9%.

With `CNC(=O)c1ccc(N2CCc3ccc(N4CC[C@H](N5CCC[C@@H]5C)C4)cc3CC2)nc1` [Example 20, N-Methyl-6-[7-((2S,3′S)-2-methyl-[1,3′]bipyrrolidinyl-1′-yl)-1,2,4,5-tetrahydro-benzo[d]azepin-3-yl]-nicotinamide], the Ki turned out to be 0.27 nM on Rat H3 (setting [3]) and 10 nM on rhesus H3 [1]. Besides, the “GTPγS-35 ASSAY % Inverse Agonism” value on rhesus H3 [2] is recorded as −8.4%.
